Results published in patent US9445596B2, “Small molecule compounds for the control of nematodes” (California Institute of Technology, priority 2011, dated 2016).
“Also recorded” adds a separate entry of the source.

Assays:
males = assay: Bioassay of HPLC-purified peak; format: in vivo; conditions: purified peak with retention time of 9.7 minutes
Method: A Thermo Finnigan LCQ Deca XP Max was used with electrospray ionization in positive ion mode in the 50-1000 AMU range. The Thermo Separation spectra HPLC system consisted of a P4000 quaternary pump, an AS 3000 auto sampler, and a UV 6000 diode array detector. The solvents were water with (a) 0.1% formic acid and (b) 90% acetonitrile-10% water with 10 mM ammonium formate. The column temperature was maintained at 60° C. and a solvent flow of 1.0 ml/min. The reversed phase column (PLRP-S Polymeric reversed phase column, 250×4.6 mmid, Varian Inc.) was eluted with a solvent composition starting with 90:10 (a,b) for 2 minutes, followed by a gradient to 5:95 in 20 minutes and an additional 5 minutes at 5:95. Ultraviolet absorption was monitored at 190 and 400 nm. Solvent flow between the ultraviolet detector and mass spectroscopy electrospray interface split 9:1 with a low-volume micro needle P450 splitter valve (Upchurch Scientific, Oak Harbor, Wash.), making it possible to obtain spectra of eluted compounds and simultaneously collect 90% of the injected material for bioassay. […] This was confirmed to be ascr#1 using NMR analysis.

[1] = test system: P. pacificus strain RSB020; assay: Mouth-form dimorphism assay; format: in vivo, Pristionchus pacificus; conditions: high concentrations
P. pacificus = assay: Dauer formation assay; format: in vivo, Pristionchus pacificus; conditions: even at very high concentrations (20 μM)
Method: Dauer formation assays were performed as described in Ogawa et al., Curr. Biol. 19:67-71 (2009), which is hereby incorporated by reference in its entirety, using heat- or kanamycin-killed E. coli OP50. Synthetic compounds were dissolved in ethanol (0.5 mM, stock solution) and combined with water to make a […] and subsequently added to 3 mL NGM-agar without peptone ([…], 0.3, 0.1 μM final concentrations).

[2] = test system: several of the tested nematode species; assay: Retention assay, several nematode species; format: in vivo; conditions: 1 nM, 1 μM and 1 mM tested
Method: (§1) OP50 E. coli was grown on a standard 5 cm agar plate (made with standard Nematode Growth Medium). The bacterial lawn was 16 mm in diameter and was grown overnight at 20° C. before being used in trials. Two 4 mm spots (0.6 μL) were placed on opposite sides of the bacterial lawn (using a transparent template to guide spot placement), and several minutes elapsed for the liquid to settle in before placing nematodes down on the assay. Recording began immediately upon worm placement. 0.6 μL of the control was placed on one side of the lawn, and 0.6 μL of the experimental cue was placed on the other side of the lawn, changing the location of the cue throughout trials between left/right and top/bottom to avoid bias.
Nematodes were isolated by gender at the L4 stage the day before being used in trials as developed adults. Worms were evenly divided and placed at two points equidistant from the foci of the scoring region. Trials were recorded for 20 minutes, and frames were collected for analysis at 1 frame per second. Results were averaged from at least three different trials. For every nematode species in this study, a different total number of worms (using water in both scoring regions) was tested to determine the minimum number of worms necessary for consistent unbiased results over a 20 minute trial. The total number of worms used in the multiple species assays depended on that species' optimal parameters. 10 worms were used for P. redivivus males and females, 20 worms were used for C. elegans males and O. dolichuridae males, and 14 worms were used for S. glaseri males. The Automated Software was used to compare worm occupancy in each scoring region over time, and the Chemotaxis Index (Bargmann et al., Cell 74:515-27 (1993), which is hereby incorporated by reference in its entirety) was adapted to score preference or avoidance to each ascaroside.
A video camera attached to the microscope produced a digital video stream, which was then analyzed. The ratio of the time the average worm spent in each region of interest was calculated for every trial. For ease of implementation, all worms in a single experiment were assumed to be roughly the same size. Thus worm pixels were counted instead of whole worms, allowing fractions of a worm in the region of interest to be taken into account. It also eliminated the need for a shape-based worm identification algorithm, and allowed each frame to be analyzed independently. A band-pass filter was applied to each frame to eliminate the effect of uneven lighting and also accentuate the worms against the background. The worm was then identified after thresholding the filtered image. Throughout each experiment, the locations and sizes of the regions of interest were known. Through the filtering described above, it is known which pixels are occupied by worms and which ones are not. Thus, the ratio of worm-pixels to all pixels inside the region of interest can be calculated to produce the worm-occupancy ratio. This calculation was done for every frame, giving a plot output of worm-occupancy ratio vs. time for each region.

[3] = test system: P. redivivus males and females; assay: Retention assay, P. redivivus; format: in vivo
Method: as §1
Nematodes were isolated by gender at the L4 stage the day before being used in trials as developed adults. Worms were evenly divided and placed at two points equidistant from the foci of the scoring region. Trials were recorded for 20 minutes, and frames were collected for analysis at 1 frame per second. Results were averaged from at least three different trials. For every nematode species in this study, a different total number of worms (using water in both scoring regions) was tested to determine the minimum number of worms necessary for consistent unbiased results over a 20 minute trial. The total number of worms used in the multiple species assays depended on that species' optimal parameters. […]
(§2) A video camera attached to the microscope produced a digital video stream, which was then analyzed. The ratio of the time the average worm spent in each region of interest was calculated for every trial. […] Thus worm pixels were counted instead of whole worms, allowing fractions of a worm in the region of interest to be taken into account. It also eliminated the need for a shape-based worm identification algorithm, and allowed each frame to be analyzed independently. […] Thus, the ratio of worm-pixels to all pixels inside the region of interest can be calculated to produce the worm-occupancy ratio. […]

S. glaseri males = assay: Retention assay, S. glaseri males; format: in vivo
Method: (§3) OP50 E. coli was grown on a standard 5 cm agar plate (made with standard Nematode Growth Medium). The bacterial lawn was 16 mm in diameter and was grown overnight at 20° C. before being used in trials. Two 4 mm spots (0.6 μL) were placed on opposite sides of the bacterial lawn (using a transparent template to guide spot placement), and several minutes elapsed for the liquid to settle in before placing nematodes down on the assay. Recording began immediately upon worm placement. […]
(§4) Nematodes were isolated by gender at the L4 stage the day before being used in trials as developed adults. […] Trials were recorded for 20 minutes, and frames were collected for analysis at 1 frame per second. […]
as §2

C. elegans males = assay: Retention assay, C. elegans males; format: in vivo
Method: as §3, §4, §2

C. elegans [4] = conditions: Srinivasan et al. 2012; cited from earlier work
C. elegans [5] = conditions: cited from earlier work
[6] = test system: C. elegans hermaphrodites and males; assay: Spot attraction assay; format: in vivo
Method: The spot attraction assays were conducted according to a previously reported method (Pungaliya et al., PNAS 106:7708-13 (2009); Srinivasan et al., Nature 454:1115-18 (2008), which are hereby incorporated by reference in their entirety). For both C. elegans hermaphrodites and males, 50-60 worms were harvested daily at the fourth larval stage (L4) and stored segregatedly by sex at 20° C. overnight, to be used as young adults the following day. For the competition experiments, two conditions were used: 120 nM ascr#3 and 10 nM icas#3 (Condition 1), or 12 μM ascr#3 and 1 μM icas#3 (Condition 2) in water containing 10% ethanol. Aliquots were stored at −20° C. in 20 μL tubes. 10% ethanol in water was used as control.
Attraction assays with hbas#3 were conducted as previously reported (Srinivasan et al., Nature 454:1115-18 (2008); Pungaliya et al., Proc. Natl. Acad. Sci. U.S.A. 106:7708-13 (2009), which are hereby incorporated by reference in their entirety). For the attraction assays, 50-60 hermaphrodite worms were harvested daily at the early fourth larval stage (L4) and stored at 20° C. overnight to be used as young adults the following day. Hbas#3 was dissolved in water containing 10% ethanol. Aliquots were stored at −20° C. in 20 μL tubes. 10% ethanol in water was used as control.

C. elegans [7] = assay: Aggregation assay; format: in vivo
Method: Aggregation behavior of worms was measured using assays reported in de Bono & Bargmann, Cell 94:679-89 (1998), which is hereby incorporated by reference in its entirety. Aggregation assays were conducted on standard NGM plates. Plates containing indole ascarosides were made by adding the indole ascaroside stock solution to the NGM media before they were poured onto the plates. These plates were dried at room temperature for 2 to 3 days. Control plates were treated similarly, except that ethanol solutions instead of icas solutions were added to the plates, corresponding to the amount of ethanol introduced via the icas solutions. Final ethanol concentrations of the plates were below 0.1% for all conditions. After drying, both control plates and plates containing indole ascarosides were seeded with 150 μl of an overnight culture of E. coli OP50 using a micropipette, and were allowed to dry for 2 days at room temperature. For “low worm density” experiments, 20 worms were placed onto the lawn and left at 20° C. for 3 hours. For “high worm density” experiments, approximately 120 worms were placed onto the bacterial lawn and left at 20° C. for 3 hours. Aggregation behavior was quantified as the number of animals that were in touch with two or more animals at greater than 50% of their body length.

[8] = Butcher et al., Org. Lett. 2009

Row | SMILES | activity in the bioassay (males) | induction of the eurystomatous mouth form [1] | dauer induction (P. pacificus) | preference for areas conditioned by the ascaroside [2] | concentration of conditioned regions preferred (activity threshold) ([3]; males) | concentration of conditioned regions preferred (activity threshold) (S. glaseri males) | concentration of conditioned regions preferred (activity threshold) (C. elegans males) | response of P. redivivus females ([3]; females) | response of P. redivivus males ([3]; males) | aggregation in C. elegans (C. elegans [4]) | dauer-inducing activity (C. elegans [5]; [8]) | shape of dauer response curve (C. elegans [5]; [8]) | promotion of dauer entry (C. elegans [5]; shown previously) | attraction in the spot attraction assay ([6]; 1 pmol, N2 hermaphrodites and him-5 males) | attraction in the spot attraction assay ([6]; high concentrations, males and hermaphrodites) | attraction of hermaphrodites ([6]; low concentrations, N2 hermaphrodites) | attraction of males ([6]; low concentrations, males) | concentrations at which active as hermaphrodite attractants and aggregation signals (C. elegans [7]; in vivo) | aggregation of hermaphrodites (C. elegans [7]; low worm density, solitary and social hermaphrodites)
1 | C[C@H](CCCCC(=O)O)O[C@@H]1O[C@@H](C)[C@H](O)C[C@H]1O [ascr#1, reference compound] | active to males | weaker induction of the eurystomatous mouth form | does not induce dauer formation; also recorded: no dauer-inducing activity | preferred |  |  |  |  |  |  |  |  |  |  |  |  |  |  | 
2 | CC1O[C@@H](O[C@H](C)CCCCCCC(=O)O)C(O)C[C@H]1O (some centres unmarked) [ascr#10] |  |  |  | preferred | 1 mM | 1 mM | 1 µM |  |  |  |  |  |  |  |  |  |  |  | 
3 | C[C@H](CCC(=O)O)O[C@@H]1O[C@@H](C)[C@H](OC(=O)c2c[nH]c3ccccc23)C[C@H]1O [icas#9, reference compound] |  |  |  |  |  |  |  | repeled | elicited no response | aggregating stimulant | moderate dauer-inducing activity | bell-shaped response curve | individually promote dauer entry | attractive to both C. elegans sexes | attracted both males and hermaphrodites | strongly attracted | not attracted; also recorded: not males | femtomolar to picomolar | increased aggregation of both solitary and social hermaphrodites
